Source: US10953027B2, “Active agents and methods of their use for the treatment of metabolic disorders and nonalcoholic fatty liver disease” (Flagship Pioneering Innovations V, Inc., priority 2018, dated 2021)

What was measured:
[1] = tested on: Primary human subcutaneous adipocytes; assay: Glucose uptake in human subcutaneous adipocytes, insulin sensitive model; type: cell-based
Experimental: Primary human subcutaneous adipocytes (Zen Bio, Research Triangle Park, N.C.) were differentiated for two weeks prior to treatment. Cells were treated with indicated compounds diluted in (dimethyl-sulfoxide) DMSO in serum free medium for 24 hours in triplicate. After 24 hours, media was exchanged for assay buffer and the compounds were added again but in the presence of approximately 1 nM insulin. Glucose uptake was initiated with the addition of a cocktail containing 2-deoxyglucose and ^3H-2-deoxyglucose and allowed to incubate for 2 hours. Cells were washed, lysed and glucose uptake was measured as counts per well. As an assay control, 100 nM of insulin was used during the 2 hours of glucose uptake. […] Statistical changes in glucose uptake were determined by way ANOVA and compared to DMSO.

[2] = tested on: Primary human subcutaneous adipocytes; assay: Glucose uptake in human subcutaneous adipocytes, insulin resistant model; type: cell-based
Experimental: As described above, primary human subcutaneous adipocytes were differentiated for two weeks prior to treatment. To induce an insulin resistant state, cells were treated in serum free Dulbecco's Modified Eagle Medium (high glucose) and […] for 24 hours. Cells were simultaneously treated with compounds diluted in DMSO for 24 hours. As described above, after 24 hours, media was exchanged for assay buffer and the compounds were added again but in the presence of approximately 1 nM insulin. Cells were washed and lysed after 2 hours and glucose uptake was measured. […] Statistical changes in glucose uptake were determined by way ANOVA and compared to DMSO.

[3] = tested on: Caco-2 colonocytes; assay: Human Caco-2 barrier integrity assay (TEER); type: cell-based; conditions: 48 hours
Experimental: Caco-2 colonocytes were maintained at 37° C. and 5% CO2 in Dulbecco's Modified Eagle Medium (DMEM) and supplemented with 10% FBS, 1% NEAA, 1% penicillin-streptomycin. At 70-80% confluency, cells were trypsinized and seeded in 0.4 cm^2 transwell collagen I coated membranes with supplemented DMEM in both apical and basolateral compartments. Cells were seeded at a density of 200,000 cells per well and maintained for 10 days to form a polarized barrier with a TransEpithelial Electrial Resistance (TEER) reading above 1000Ω. On the first day of the assay, initial TEER readings were taken and cytokines were added to the basolateral media (50 ng/mL TNFα, 25 ng/mL IFNγ and 10 ng/mL IL-1β) to reduce barrier integrity while compounds diluted in (dimethylsulfoxide) DMSO were added to the apical media in triplicate. After 48 hours, TEER readings were taken again and viability was measured by CellTiter 96® AQueous One Solution Cell Proliferation Assay (Promega). The percent change in TEER over the 48 hours was determined and normalized to the 0.1% DMSO control (Table 6).

[4] = tested on: Mouse 3T3-L1 cells; assay: Mouse adipocyte lipolysis assay; type: cell-based; conditions: Mus musculus, 3T3-L1, 24 hours, read-out: Lipolysis Free Fatty Acids % DMSO
Experimental: Once the cells became confluent, they were seeded into a tissue culture treated 96 well plate. […] After 14 days of differentiation, cells were treated with compounds of interest. After 24 hours post-treatment, the cell viability was assessed using CellTiter-Glo Luminescent Cell Viability Assay from Promega, and lipolysis was determined using Lipolysis Assay Kit from ZenBio.

[5] = tested on: Mouse myocyte; assay: Mouse myocyte lipolysis assay; type: cell-based; conditions: Mus musculus, read-out: Free glycerol % DMSO
Experimental: Cells were obtained from ATCC and cultured in Dulbecco's Modified Eagle's medium (DMEM) containing 20% fetal bovine serum and 1% penicillin/streptomycin at 37° C. in an incubator with 5% CO2. Once the cells became confluent, they were seeded into a tissue culture treated 96 well plate. The next day, the medium containing DMEM with 2% equine serum was used to start differentiation. Once cells were fully differentiated, they were treated with indicated compounds.

[6] = tested on: naïve CD4+ T cells; assay: Human regulatory T cell differentiation assay; type: cell-based; conditions: 6 days
Outline: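 Naïve CD4+ T cells from healthy-donor PBMCs cultured 6 days in OpTmizer medium with 5 ng/ml TGF-β, 100 U/ml IL-2 and CD3/CD28/CD2 activator, with or without compound. Tregs (live CD4+CD3+CD25+FOXP3+, lineage-negative) measured by flow cytometry and expressed as % of total CD4+ T cells.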

[7] = tested on: Human Peripheral Blood Monocytes (PBMCs); assay: Cytokine release from human PBMCs; type: cell-based; conditions: 100 μM, LPS, 24 hours
Experimental: Human donor blood (8 mL) was collected in sodium citrate CPT tubes and centrifuged at 1,600×g for 20 minutes at room temperature. […] PBMCs samples were centrifuged at 400×g for 10 minutes at 10° C. […] PBMCs were filtered through a 70 micron mesh to remove any cellular debris. […] PBMCs in a 96-well plate were rested for 30 minutes in a 37° C., 5% CO2 incubator, then subsequently treated with 10 μl of indicated compound. After 2 hours 10 μL of LPS (O111:B4) 1 mg/mL was added to test wells. After 24 hours of incubation at 37° C., 5% CO2, 100 μL of cell supernatant was collected and transferred to a 96-well plate (non-tissue treated, flat bottom). The plate was centrifuged at 350×g for 5 minutes at room temperature, and then the clear supernatant transferred to a new 96-well plate (non-tissue treated, flat bottom). The remaining cells were tested for viability using CellTiter-Glo® Luminescent Cell Viability Assay (Promega). The supernatant was analyzed for TNFα, IL-6 and IL-1β (kit LXSAHM-03; R&D Systems), using Luminex Immunoassay Technology (MAGPIX System). Cytokine levels of LPS treated DMSO control samples were set to 100%, and compound treated samples were expressed relative to this (Table 13).

[8] = tested on: AhR; assay: AhR activation in Caco-2 cells through CYP1A1 mRNA expression
Experimental: Caco-2 cells from American Type Culture Collection (ATCC) were plated in a sterile tissue culture treated 96-well plate (ThermoFisher) at […] per well, and grown overnight at 37° C., 5% CO2 in DMEM complete (Gibco) in order to achieve confluence. After the incubation medium was aspirated from the Caco-2 monolayers, tissues were then washed with 200 μL of warmed PBS solution, and subsequently 190 μL of pre-warmed growth medium was added to each well. Compounds of interest were diluted at a 20× concentration in growth medium containing 2% DMSO, and 10 μL of compound solutions were added to respective wells in triplicate. Compounds where incubated overnight at 37° C., 5% CO2. 2-(1′H-indole-3′-carbonyl)-thiazole-4-carboxylic acid methyl ester (ITE) was used as the positive control for AhR activation at 1 and 100 μM concentrations. At the end of the incubation, medium was aspirated off of the Caco-2 cells, and washed with 100 μL of cold PBS solution. RNA was extracted via the TaqMan™ Gene Expression Cells-to-CT™ Kit (ThermoFisher) according to the manufacturers protocol. The QuantStudio 6 Flex (Applied Biosciences) was used to analyze mRNA levels of CYP1A1 using GAPDH as the endogenous control. TaqMan™ probe sets for both genes were acquired from ThermoFisher. Samples were run in triplicate and data was analyzed using the QuantStudio software and reported as linear (Table 1) and log 2(ΔΔCT) values. Statistical analysis was performed using a two-tailed t-test comparing CYP1A1 levels in the presence of each individual compound to the vehicle negative control.

[9] = Homo sapiens, CD4+ T, 144 h, 1 uM, read-out: Treg induction % DMSO

SMILES: O=c1c(O)c(-c2ccc(O)c(O)c2)oc2cc(O)cc(O)c12 [Quercetin, quercetin]
- Insulin Sensitive % DMSO (glucose uptake) ([1]; 100 nM): = (50%> ≤110%: =)
- Insulin Sensitive % DMSO (glucose uptake) ([1]; 1 μM): = (50%> ≤110%: =)
- Insulin Resistant % DMSO (glucose uptake) ([2]; 100 nM): = (50%> ≤110%: =)
- Insulin Resistant % DMSO (glucose uptake) ([2]; 1 μM): = (50%> ≤110%: =)
- % Change in TEER from DMSO ([3]; 1 μM + cytokines): + (125%> ≤150%: +)
- % Change in TEER from DMSO ([3]; 100 μM + cytokines): − (≤125%: −)
- activity at 0.1 µM ([4]; 100 nM): 50 to 70%
- activity at 1 µM [4]: 50 to 70%
- activity at 0.1 µM ([5]; 100 nM): 70 to 90%
- activity at 1 µM [5]: 70 to 90%
- Cell viability % DMSO ([6]; 100 nM): = (90%≥ ≤110%: =)
- Cell viability % DMSO ([6]; 1 uM): = (90%≥ ≤110%: =)
- activity at 0.1 µM ([6]; Homo sapiens, CD4+ T, 144 h, 100 nM, read-out: Treg induction % DMSO): 90 to 110%
- activity at 1 µM [6, 9]: 90 to 110%
- IL6 % DMSO control [7]: + ((+) 50%≥ <90% DMSO)
- ILβ % DMSO control [7]: + ((+) 50%≥ <90% DMSO)
- TNFα % of DMSO control [7]: + ((+) 50%≥ <90% DMSO)

SMILES: O=C(O)c1ccccc1 [Benzoic acid]
- Average CYP1A1 mRNA levels ([8]; Conc. 10.0 μM): + (+ = >2-fold Vehicle)
- Average CYP1A1 mRNA levels ([8]; Conc. 100.0 μM): + (+ = >2-fold Vehicle)

SMILES: CC(=O)O [Acetate, acetic acid]
- Insulin Sensitive % DMSO (glucose uptake) ([1]; 1 mM): = (50%> ≤110%: =)
- Insulin Sensitive % DMSO (glucose uptake) ([1]; 3 mM): = (50%> ≤110%: =)
- Insulin Resistant % DMSO (glucose uptake) ([2]; 1 mM): = (50%> ≤110%: =)
- Insulin Resistant % DMSO (glucose uptake) ([2]; 3 mM): = (50%> ≤110%: =)
- % Change in TEER from DMSO ([3]; 1 mM + cytokines): − (≤125%: −)
- % Change in TEER from DMSO ([3]; 3 mM + cytokines): − (≤125%: −)
- activity at 1000 µM ([4]; 1 mM): 50 to 70%
- activity at 3000 µM ([4]; 3 mM): 50 to 70%
- activity at 1000 µM ([5]; 1 mM): 90 to 100%
- activity at 3000 µM ([5]; 3 mM): 90 to 100%
- Cell viability % DMSO ([6]; 1 mM): = (90%≥ ≤110%: =)
- Cell viability % DMSO ([6]; 3 mM): = (90%≥ ≤110%: =)
- activity at 1000 µM ([6]; Homo sapiens, CD4+ T, 144 h, 1 mM, read-out: Treg induction % DMSO): 110 to 130%
- activity at 3000 µM ([6]; Homo sapiens, CD4+ T, 144 h, 3 mM, read-out: Treg induction % DMSO): > 130%
- IL6 % DMSO control [7]: = ((=) 90%≥ <110% DMSO)
- ILβ % DMSO control [7]: = ((=) 90%≥ <110% DMSO)
- TNFα % of DMSO control [7]: = ((=) 90%≥ <110% DMSO)

SMILES: CC(O)CCO (stereo not shown) [butanediol, 1,3-butanediol]
- Average CYP1A1 mRNA levels ([8]; Conc. 500.0 μM): − (− = +2-fold Vehicle)
- % Change in TEER from DMSO ([3]; 100 μM + cytokines): − (≤125%: −)
- % Change in TEER from DMSO ([3]; 0.5 mM + cytokines): − (≤125%: −)
- IL6 % DMSO control [7]: = ((=) 90%≥ <110% DMSO)
- ILβ % DMSO control [7]: = ((=) 90%≥ <110% DMSO)
- TNFα % of DMSO control [7]: = ((=) 90%≥ <110% DMSO)

SMILES: OCc1c[nH]c2ccccc12 [indole-3-carbinol]
- Average CYP1A1 mRNA levels ([8]; Conc. 1000.0 μM): + (+ = >2-fold Vehicle)

SMILES: Cn1cc(C[C@H](N)C(=O)O)c2ccccc21 [1-methylindole-3-alanine]
- Average CYP1A1 mRNA levels ([8]; Conc. 10.0 μM): + (+ = >2-fold Vehicle)
- Average CYP1A1 mRNA levels ([8]; Conc. 100.0 μM): +++ (+++ = >10-fold Vehicle)

SMILES: c1ccc2[nH]ccc2c1 [indole]
- Average CYP1A1 mRNA levels ([8]; Conc. 1000.0 μM): + (+ = >2-fold Vehicle)

SMILES: Oc1ccc(C=Cc2cc(O)cc(O)c2)cc1 [Resveratrol, resveratrol]
- Insulin Sensitive % DMSO (glucose uptake) ([1]; 10 μM): = (50%> ≤110%: =)
- Insulin Sensitive % DMSO (glucose uptake) ([1]; 100 μM): − (<50%: −)
- Insulin Resistant % DMSO (glucose uptake) ([2]; 10 μM): = (50%> ≤110%: =)
- Insulin Resistant % DMSO (glucose uptake) ([2]; 100 μM): − (<50%: −)
- % Change in TEER from DMSO ([3]; 10 μM + cytokines): − (≤125%: −)
- % Change in TEER from DMSO ([3]; 100 μM + cytokines): +++ (200%>: +++)
- activity at 1 µM [4]: 70 to 90%
- activity at 10 µM ([4]; 10 μM): 90 to 100%
- activity at 1 µM [5]: 70 to 90%
- activity at 10 µM ([5]; 10 μM): 50 to 70%
- Cell viability % DMSO ([6]; 1 uM): − (<90%: −)
- Cell viability % DMSO ([6]; 10 uM): − (<90%: −)
- activity at 1 µM [6, 9]: 110 to 130%
- activity at 10 µM ([6]; Homo sapiens, CD4+ T, 144 h, 10 uM, read-out: Treg induction % DMSO): 110 to 130%
- IL6 % DMSO control [7]: + ((+) 50%≥ <90% DMSO)
- ILβ % DMSO control [7]: = ((=) 90%≥ <110% DMSO)
- TNFα % of DMSO control [7]: + ((+) 50%≥ <90% DMSO)

SMILES: COC(=O)c1csc(C(=O)c2c[nH]c3ccccc23)n1 [ITE, 2-(1′H-indole-3′-carbonyl)-thiazole-4-carboxylic acid methyl ester]
- Average CYP1A1 mRNA levels ([8]; Conc. 1.0 μM): +++ (+++ = >10-fold Vehicle)
